Experimental data from ChEMBL document CHEMBL4725224, “A novel Golgi mannosidase inhibitor: Molecular design, synthesis, enzyme inhibition, and inhibition of spheroid formation” (Bioorg Med Chem, 2020).
The source made the active and inactive calls. No cut-off for these calls is given here.

Legend:
Format in all cases: cell-based
HeLa [1] = experiment: Inhibition of Golgi mannosidase in human HeLa cells assessed as high mannose type N-glycans accumulation by measuring reduction in cell length using ConA-AF488 at 10 uM by fluorescence microscopy analysis (reference value: 100%); details: time day <=7
HeLa [2] = experiment: Inhibition of Golgi mannosidase in human HeLa cells assessed as high mannose type N-glycans accumulation by measuring increase in fluorescence area using ConA-AF488 at 10 uM by fluorescence microscopy analysis (reference value: 100%); details: values are per cent of control
HeLa [3] = experiment: Inhibition of Golgi mannosidase in human HeLa cells assessed as intracellular high mannose type N-glycans accumulation by measuring increase in fluorescence intensity using ConA-AF488 at 10 uM by confocal laser scanning microscopy analysis
OVCAR-3 = experiment: Inhibition of Golgi mannosidase in human OVCAR-3 cells assessed as inhibition of spheroid formation by measuring size at 10 uM upto 7 days by light microscopy analysis relative to control; details: time day <=7
HeLa [4] = experiment: Inhibition of Golgi mannosidase in human HeLa cells assessed as high mannose type N-glycans accumulation by measuring increase in fluorescence intensity using ConA-AF488 at 10 uM by fluorescence microscopy analysis (reference value: 100%); details: values are per cent of control

SMILES	inhibition (HeLa [1]) [%]	response, % of control (HeLa [2]) [%]	inhibition (HeLa [3])	inhibition (OVCAR-3)	response, % of control (HeLa [4]) [%]
CN(C)c1ccc(CNCCC(c2ccccc2)c2ccccc2)cc1	32	–	–	–	–
COc1ccc(C(CCNCc2ccc(N(C)C)cc2)c2ccc3c(c2)OCO3)cc1 (centres undefined)	28	148	Active	Active	–
COc1ccc(C(CCNCc2ccc(Cl)cc2)c2ccc3c(c2)OCO3)cc1 (centres undefined)	27	150	–	–	–
Clc1ccc(CNCCC(c2ccccc2)c2ccc3c(c2)OCO3)cc1 (centres undefined)	18	115	–	–	111
Clc1ccc(CNCCC(c2ccccc2)c2ccccc2)cc1	29	127	–	–	134
CN(C)c1ccc(CNCCC(c2ccccc2)c2ccc3c(c2)OCO3)cc1 (centres undefined)	23	114	–	–	114
O=C1N[C@@H]2[C@@H](O)[C@@H](O)[C@H](O)[C@@H](CO)N2C1=O	13	–	Active	inactive	–
c1ccc(CNCCC(c2ccccc2)c2ccc3c(c2)OCO3)cc1 (centres undefined)	21	–	–	–	–
COc1ccc(C(CCNCc2ccc3c(c2)OCO3)c2ccc3c(c2)OCO3)cc1 (centres undefined)	26	108	–	–	110
c1ccc(C(CCNCc2ccc3c(c2)OCO3)c2ccccc2)cc1	28	113	–	–	114
c1ccc(C(CCNCc2ccc3c(c2)OCO3)c2ccc3c(c2)OCO3)cc1 (centres undefined)	31	113	–	–	104
